# Experiments:
# [1] = target: T1, EGFR^L858R+T790M+C797S (Homo sapiens, UniProt P00533, C797S/L858R/T790M); experiment: EGFR protein degradation test (Western blot) in Ba/F3 cells expressing mutant EGFR L858R+T790M+C797S (LTC); type: cell-based; settings: compounds at 0.1 μM and 1 μM, 24 hours, Western blot with EGFR antibody
# T1 construct: expressed in transfected cells; host or cells: Ba/F3
# Summary of the method: (§1)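 Ba/F3 cells expressing wild-type EGFR, del19+T790M+C797S or L858R+T790M+C797S EGFR were treated with compound at 0.1 μM and 1 μM for 24 h. Lysates (30 μg) were analysed by SDS-PAGE and EGFR Western blot, with bands quantified densitometrically.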
# [2] = Pharmacokinetic evaluation after single oral administration to ICR mice; type: in vivo; settings: for half-life / AUC(0-t): mouse, ICR mice, single oral dose 5 mg/kg, plasma; for AUC(0-t): read-out: AUC0-24
# Protocol: Pharmacokinetic tests for the compounds of the present invention were conducted as below. After a single oral administration of the compound of the present invention to ICR mice, the concentration of the compound over time was followed up and analyzed.
# The compound of the present invention was suspended in 10% DMSO/90% (30% HPbCD aqueous solution) and orally administered to mice at a dose of 5 mg/kg. Blood was collected at a fixed time and plasma was separated. Drug analysis was performed using HPLC (XBridge column C18, Waters, mobile phase 0.1% formic acid:acetonitrile (30:70, %/%)) and MS/MS (ESI positive, MRM). Mouse blood plasma and each commercially available standard solution were mixed at a ratio of 9:1 to prepare and calibrate at concentrations of […] 5,000 ng/mL. In addition, the preparation of QC samples was prepared by mixing the mouse blood plasma and the standard solution for QC at a ratio of 9:1, and prepared to be concentrations of 100, 750 and 2,500 ng/mL. 100 μL of the plasma sample was transferred to a centrifugation tube, and 10 μL of the internal standard solution and 300 μL of methanol were added, followed by mixing for about 30 seconds for pretreatment. The tube was centrifuged at 3,000×g (4° C.) for about 5 minutes, and the supernatant was taken and transferred to an LC vial and injected into the instrument. Then, the concentration of the compound in mouse plasma was quantified by applying a previously validated assay. For pharmacokinetic parameters, the program WinNonlin 5.2 (Pharsight, USA) was used. AUC0-t, AUC0-∞, Cmax, Tmax, and t1/2 were calculated by Noncompartment modeling (best fit). The pharmacokinetic parameter results were expressed as the mean (Mean) and standard deviation (SD), and were statistically processed using the SPSS program (Statistical Package for the Social Sciences, 10.0K, USA).
# [3] = test system: EGFR^del19+T790M+C797S; experiment: EGFR protein degradation test (Western blot) in Ba/F3 cells expressing mutant EGFR del19+T790M+C797S (DTC); type: cell-based; settings: compounds at 0.1 μM and 1 μM, 24 hours, Western blot with EGFR antibody
# Summary of the method: as §1
# [4] = 74, 76, 77, 80, 81 vs 45, 71, 51, 65, 53
# [5] = 69, 70, 75, 78, 82 vs compounds 53 and 65
# T1 sequence (P00533 25-1210 T790M/C797S/L858R): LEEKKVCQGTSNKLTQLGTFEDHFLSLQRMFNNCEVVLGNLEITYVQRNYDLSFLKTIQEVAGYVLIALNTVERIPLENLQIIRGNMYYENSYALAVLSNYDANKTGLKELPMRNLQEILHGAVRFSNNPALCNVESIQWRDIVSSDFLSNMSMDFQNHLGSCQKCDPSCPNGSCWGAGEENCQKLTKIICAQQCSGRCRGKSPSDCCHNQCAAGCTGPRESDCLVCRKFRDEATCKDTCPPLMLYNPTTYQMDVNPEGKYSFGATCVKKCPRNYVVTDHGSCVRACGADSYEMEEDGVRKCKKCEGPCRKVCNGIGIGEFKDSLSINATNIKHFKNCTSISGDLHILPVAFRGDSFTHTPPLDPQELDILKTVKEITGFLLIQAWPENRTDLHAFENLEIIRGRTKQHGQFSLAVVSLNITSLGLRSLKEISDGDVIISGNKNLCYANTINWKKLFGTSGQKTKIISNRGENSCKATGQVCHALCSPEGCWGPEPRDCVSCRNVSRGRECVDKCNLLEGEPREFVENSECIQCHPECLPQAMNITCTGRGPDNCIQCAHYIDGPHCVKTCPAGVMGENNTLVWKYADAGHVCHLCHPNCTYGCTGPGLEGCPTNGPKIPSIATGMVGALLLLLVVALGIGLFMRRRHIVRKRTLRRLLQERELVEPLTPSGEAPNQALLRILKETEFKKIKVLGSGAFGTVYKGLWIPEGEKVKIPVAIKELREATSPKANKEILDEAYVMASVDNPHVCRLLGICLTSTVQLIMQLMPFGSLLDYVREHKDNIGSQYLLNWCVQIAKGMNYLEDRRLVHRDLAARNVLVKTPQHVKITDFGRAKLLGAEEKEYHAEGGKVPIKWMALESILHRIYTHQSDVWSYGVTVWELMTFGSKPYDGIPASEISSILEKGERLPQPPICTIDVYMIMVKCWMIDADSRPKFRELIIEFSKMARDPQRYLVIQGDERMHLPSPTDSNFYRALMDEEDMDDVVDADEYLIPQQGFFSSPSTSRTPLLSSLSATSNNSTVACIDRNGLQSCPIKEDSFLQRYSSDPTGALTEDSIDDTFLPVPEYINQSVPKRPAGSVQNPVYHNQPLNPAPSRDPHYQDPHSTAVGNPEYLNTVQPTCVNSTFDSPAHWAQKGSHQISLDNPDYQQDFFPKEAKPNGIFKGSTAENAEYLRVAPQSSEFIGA
SMILES,LTC (EGFR^L858R+T790M+C797S) protein degradation [1],half-life [2],AUC(0-t) [2],DTC (EGFR^del19+T790M+C797S) protein degradation [3],"AUC compared to the corresponding compounds [2, 4]","AUC compared to the corresponding compounds [2, 5]"
"COc1cc(N2CCC(N3CCN(CCNc4cccc5c4C(=O)N(C4CCC(=O)NC4=O)C5=O)CC3)CC2)ccc1Nc1ncc(Cl)c(Nc2ccccc2N(C)S(C)(=O)=O)n1 (stereo not drawn) [Compound 45, N-(2-((5-chloro-2-((4-(4-(4-(2-((2-(2,6-dioxopiperidin-3-yl)-1,3-dioxoisoindolin-4-yl)amino)ethyl)piperazin-1-yl)piperidin-1-yl)-2-methoxyphenyl)amino)pyrimidin-4-yl)amino)phenyl)-N-methylmethanesulfonamide]",++ (Protein degradation > 80%),3.45 h,992 ng·h/mL,++ (Protein degradation > 80%),–,–
"COc1cc(N2CCC(N3CCN(CC4CCN(c5ccc6c(c5)C(=O)N(C5CCC(=O)NC5=O)C6=O)CC4)CC3)CC2)c(C)cc1Nc1ncc(Cl)c(Nc2ccccc2N(C)S(C)(=O)=O)n1 (stereo not drawn) [Compound 76, N-(2-((5-chloro-2-((4-(4-(4-((1-(2-(2,6-dioxopiperidin-3-yl)-1,3-dioxoisoindolin-5-yl)piperidin-4-yl)methyl)piperazin-1-yl)piperidin-1-yl)-2-methoxy-5-methylphenyl)amino)pyrimidin-4-yl)amino)phenyl)-N-methylmethanesulfonamide]",++ (Protein degradation > 80%),6.66 h,5240 ng·h/mL,+ (Protein degradation 20~80%),significantly improved AUC,–
"COc1cc(N2CCN(CC3CCN(C(=O)CNc4cccc5c4C(=O)N(C4CCC(=O)NC4=O)C5=O)CC3)CC2)c(C)cc1Nc1ncc(Cl)c(Nc2ccccc2N(C)S(C)(=O)=O)n1 (stereo not drawn) [Compound 80, N-(2-((5-chloro-2-((4-(4-((1-((2-(2,6-dioxopiperidin-3-yl)-1,3-dioxoisoindolin-4-yl)glycyl)piperidin-4-yl)methyl)piperazin-1-yl)-2-methoxy-5-methylphenyl)amino)pyrimidin-4-yl)amino)phenyl)-N-methylmethanesulfonamide]",++ (Protein degradation > 80%),3.55 h,1040 ng·h/mL,++ (Protein degradation > 80%),significantly improved AUC,–
"COc1cc(N2CCC(N3CCN(CC(=O)N[C@H](C(=O)N4C[C@H](O)C[C@@H]4C(=O)NCc4ccc(-c5scnc5C)cc4)C(C)(C)C)CC3)CC2)ccc1Nc1ncc(Cl)c(Nc2ccccc2N(C)S(C)(=O)=O)n1 [Compound 11, (2R,4R)-1-((S)-2-(2-(4-(1-(4-((5-chloro-4-((2-(N-methylmethylsulfonamido)phenyl)amino)pyrimidin-2-yl)amino)-3-methoxyphenyl)piperidin-4-yl)piperazin-1-yl)acetamido)-3,3-dimethylbutanoyl)-4-hydroxy-N-(4-(4-methylthiazol-5-yl)benzyl)pyrrolidin-2-carboxamide]",++ (Protein degradation > 80%),6.54 h,553 ng·h/mL,++ (Protein degradation > 80%),–,–
"COc1cc(N2CCC(CN3CCN(C(=O)[C@H](C)Nc4cccc5c4C(=O)N(C4CCC(=O)NC4=O)C5=O)CC3)CC2)c(C)cc1Nc1ncc(Cl)c(Nc2ccccc2N(C)S(C)(=O)=O)n1 (stereo partly drawn) [Compound 78, N-(2-((5-chloro-2-((4-(4-((4-((2-(2,6-dioxopiperidin-3-yl)-1,3-dioxoisoindolin-4-yl)-L-alanyl)piperazin-1-yl)methyl)piperidin-1-yl)-2-methoxy-5-methylphenyl)amino)pyrimidin-4-yl)amino)phenyl)-N-methylmethanesulfonamide]",++ (Protein degradation > 80%),3.75 h,5740 ng·h/mL,++ (Protein degradation > 80%),–,significantly improved AUC
"COc1cc(N2CCC(N3CCN(CC4CCN(c5ccc6c(c5)C(=O)N(C5CCC(=O)NC5=O)C6=O)CC4)CC3)CC2)ccc1Nc1ncc(Cl)c(Nc2ccccc2N(C)S(C)(=O)=O)n1 (stereo not drawn) [Compound 71, N-(2-((5-chloro-2-((4-(4-(4-((1-(2-(2,6-dioxopiperidin-3-yl)-1,3-dioxoisoindolin-5-yl)piperidin-4-yl)methyl)piperazin-1-yl)piperidin-1-yl)-2-methoxyphenyl)amino)pyrimidin-4-yl)amino)phenyl)-N-methylmethanesulfonamide]",++ (Protein degradation > 80%),7.77 h,1230 ng·h/mL,+ (Protein degradation 20~80%),–,–
"COc1cc(N2CCN(CC3CCN(C(=O)[C@H](C)Nc4cccc5c4C(=O)N(C4CCC(=O)NC4=O)C5=O)CC3)CC2)ccc1Nc1ncc(Cl)c(Nc2ccccc2N(C)S(C)(=O)=O)n1 (stereo partly drawn) [Compound 70, N-(2-((5-chloro-2-((4-(4-((1-((2-(2,6-dioxopiperidin-3-yl)-1,3-dioxoisoindolin-4-yl)-L-alanyl)piperidin-4-yl)methyl)piperazin-1-yl)-2-methoxyphenyl)amino)pyrimidin-4-yl)amino)phenyl)-N-methylmethanesulfonamide]",++ (Protein degradation > 80%),3.07 h,598 ng·h/mL,++ (Protein degradation > 80%),–,significantly improved AUC
"COc1cc(N2CCN(CC3CCN(C(=O)CNc4cccc5c4C(=O)N(C4CCC(=O)NC4=O)C5=O)CC3)CC2)ccc1Nc1ncc(Cl)c(Nc2ccccc2N(C)S(C)(=O)=O)n1 (stereo not drawn) [Compound 65, N-(2-((5-chloro-2-((4-(4-((1-((2-(2,6-dioxopiperidin-3-yl)-1,3-dioxoisoindolin-4-yl)glycyl)piperidin-4-yl)methyl)piperazin-1-yl)-2-methoxyphenyl)amino)pyrimidin-4-yl)amino)phenyl)-N-methylmethanesulfonamide]",++ (Protein degradation > 80%),4.01 h,607 ng·h/mL,++ (Protein degradation > 80%),–,–
"CN(c1ccccc1Nc1nc(Nc2ccc(N3CCN(CC4CCN(C(=O)COc5cccc6c5C(=O)N(C5CCC(=O)NC5=O)C6=O)CC4)CC3)c(F)c2)ncc1Cl)S(C)(=O)=O (stereo not drawn) [Compound 43, N-(2-((5-chloro-2-((4-(4-((1-(2-((2-(2,6-dioxopiperidin-3-yl)-1,3-dioxoisoindolin-4-yl)oxy)acetyl)piperidin-4-yl)methyl)piperazin-1-yl)-3-fluorophenyl)amino)pyrimidin-4-yl)amino)phenyl)-N-methylmethanesulfonamide]",++ (Protein degradation > 80%),5.07 h,346 ng·h/mL,++ (Protein degradation > 80%),–,–
"COc1cc(N2CCC(CN3CCN(CC(=O)Nc4cccc5c4CN(C4CCC(=O)NC4=O)C5=O)CC3)CC2)ccc1Nc1ncc(Cl)c(Nc2ccccc2N(C)S(C)(=O)=O)n1 (stereo not drawn) [Compound 24, 2-(4-((1-(4-((5-chloro-4-((2-(N-methylmethylsulfonamido)phenyl)amino)pyrimidin-2-yl)amino)-3-methoxyphenyl)piperidin-4-yl)methyl)piperazin-1-yl)-N-(2-(2,6-dioxopiperidin-3-yl)-1-oxoisoindolin-4-yl)acetamide]",++ (Protein degradation > 80%),12.4 h,17 ng·h/mL,++ (Protein degradation > 80%),–,–
"COc1cc(N2CCC(N3CCN(CC(=O)Nc4cccc5c4CN(C4CCC(=O)NC4=O)C5=O)CC3)CC2)ccc1Nc1ncc(Cl)c(Nc2ccccc2N(C)S(C)(=O)=O)n1 (stereo not drawn) [Compound 22, 2-(4-(1-(4-((5-chloro-4-((2-(N-methylmethylsulfonamido)phenyl)amino)pyrimidin-2-yl)amino)-3-methoxyphenyl)piperidin-4-yl)piperazin-1-yl)-N-(2-(2,6-dioxopiperidin-3-yl)-1-oxoisoindolin-4-yl)acetamide]",++ (Protein degradation > 80%),12.4 h,47 ng·h/mL,++ (Protein degradation > 80%),–,–
